Data: BindingDB's records for doi:10.1021/jm00168a011 (Merrell Dow Research Institute, 1990)
Structures can show the parent of a compound that is named as a salt.

Target: T1, 5-hydroxytryptamine receptor 3A/3B (Mus musculus, UniProt P23979+Q9JHJ5)
T1 sequence (P23979 whole entry): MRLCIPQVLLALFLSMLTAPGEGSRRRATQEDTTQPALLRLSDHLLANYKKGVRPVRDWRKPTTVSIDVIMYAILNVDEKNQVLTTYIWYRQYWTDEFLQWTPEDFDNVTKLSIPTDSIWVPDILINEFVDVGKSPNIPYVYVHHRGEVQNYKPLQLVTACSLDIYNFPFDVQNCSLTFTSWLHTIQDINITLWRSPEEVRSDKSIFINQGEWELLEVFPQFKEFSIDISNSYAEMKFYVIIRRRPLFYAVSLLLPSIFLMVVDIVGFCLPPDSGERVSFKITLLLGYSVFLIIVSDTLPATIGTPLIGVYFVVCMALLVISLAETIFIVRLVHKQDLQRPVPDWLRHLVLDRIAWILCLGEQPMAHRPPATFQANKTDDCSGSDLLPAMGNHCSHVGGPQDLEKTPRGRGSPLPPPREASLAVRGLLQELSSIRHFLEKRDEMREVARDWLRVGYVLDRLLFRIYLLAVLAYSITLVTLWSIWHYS
T1 sequence (Q9JHJ5 whole entry): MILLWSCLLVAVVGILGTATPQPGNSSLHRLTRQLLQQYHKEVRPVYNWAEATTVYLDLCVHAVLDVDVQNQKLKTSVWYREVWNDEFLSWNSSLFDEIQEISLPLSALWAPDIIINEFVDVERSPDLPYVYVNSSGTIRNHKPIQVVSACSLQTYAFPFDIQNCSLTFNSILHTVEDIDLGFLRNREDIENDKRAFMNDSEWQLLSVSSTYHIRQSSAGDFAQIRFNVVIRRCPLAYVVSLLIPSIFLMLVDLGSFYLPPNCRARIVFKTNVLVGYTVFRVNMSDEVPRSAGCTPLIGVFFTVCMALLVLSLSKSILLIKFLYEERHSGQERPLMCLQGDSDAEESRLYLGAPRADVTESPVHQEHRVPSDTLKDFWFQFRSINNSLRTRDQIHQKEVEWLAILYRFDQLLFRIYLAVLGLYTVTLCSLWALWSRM
Test: Binding affinity towards 5-hydroxytryptamine 3 receptor was determined by using [3H]-ICS 205-930 as radioligand in mouse N1E 115 cells

Compound | Kd [nM]
Cc1nccn1CC1CCc2c(c3ccccc3n2C)C1=O (stereo unspecified) [NSC_68647] | 13
CN1[C@@H]2CC[C@H]1C[C@@H](OC(=O)c1cc(Cl)cc(Cl)c1)C2 [TROPANYL 3,5-DICHLOROBENZOATE] | 6.2
c1ccc2nc(N3CCNCC3)ccc2c1 [2-Piperazin-1-yl-quinoline (Quipazine)] | 2
CN1[C@@H]2CC[C@H]1C[C@@H](OC(=O)c1c[nH]c3ccccc13)C2 [(3-ENDO)-8-METHYL-8-AZABICYCLO[3.2.1]OCT-3-YL 1H-INDOLE-3-CARBOXYLATE] | 0.813
CCN(CC)CCNC(=O)c1cc(Cl)c(N)cc1OC [4-amino-5-chloro-N-[2-(diethylamino)ethyl]-2-methoxy-benzamide;hydrochloride] | 224
O=C(OC1CC2CCC(C1)N2)c1c[nH]c2ccccc12 (stereo unspecified) [NORTROPISETRON] | 0.724
